These results are taken from ChEMBL document CHEMBL1155186, “O-Spiro C-aryl glucosides as novel sodium-dependent glucose co-transporter 2 (SGLT2) inhibitors” (Bioorg Med Chem Lett, 2009).

The target in test [1] is T1, Sodium/glucose cotransporter 2 (Homo sapiens) (UniProt P31639).
T1 sequence (whole entry): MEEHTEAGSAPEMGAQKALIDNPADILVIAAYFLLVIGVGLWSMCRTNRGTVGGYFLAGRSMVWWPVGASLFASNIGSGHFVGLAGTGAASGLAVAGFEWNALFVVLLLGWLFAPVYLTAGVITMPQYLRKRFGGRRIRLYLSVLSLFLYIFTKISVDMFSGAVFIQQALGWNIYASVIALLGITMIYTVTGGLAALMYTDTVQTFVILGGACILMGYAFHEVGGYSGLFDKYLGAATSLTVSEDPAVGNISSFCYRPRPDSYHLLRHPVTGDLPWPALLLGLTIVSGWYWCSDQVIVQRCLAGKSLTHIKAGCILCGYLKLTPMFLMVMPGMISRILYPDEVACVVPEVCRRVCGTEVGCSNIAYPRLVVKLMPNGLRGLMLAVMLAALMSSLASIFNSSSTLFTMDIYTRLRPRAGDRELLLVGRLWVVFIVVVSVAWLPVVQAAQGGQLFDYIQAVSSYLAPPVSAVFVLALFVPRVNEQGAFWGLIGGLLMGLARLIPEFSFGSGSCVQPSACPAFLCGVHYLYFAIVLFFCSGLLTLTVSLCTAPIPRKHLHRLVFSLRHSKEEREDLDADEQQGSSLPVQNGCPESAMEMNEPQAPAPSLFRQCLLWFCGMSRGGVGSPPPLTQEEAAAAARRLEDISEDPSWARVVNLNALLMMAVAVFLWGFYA
Particulars: 10 nM.
Description: Inhibition of human SGLT2 expressed in HEK293.ETN cells assessed as methyl-alpha-D-[U-14C]glucopyranoside uptake at 10 nM by scintillation counting

Test [2] has as its target T2, Sodium/glucose cotransporter 1 (Homo sapiens) (UniProt P13866).
T2 sequence (whole entry): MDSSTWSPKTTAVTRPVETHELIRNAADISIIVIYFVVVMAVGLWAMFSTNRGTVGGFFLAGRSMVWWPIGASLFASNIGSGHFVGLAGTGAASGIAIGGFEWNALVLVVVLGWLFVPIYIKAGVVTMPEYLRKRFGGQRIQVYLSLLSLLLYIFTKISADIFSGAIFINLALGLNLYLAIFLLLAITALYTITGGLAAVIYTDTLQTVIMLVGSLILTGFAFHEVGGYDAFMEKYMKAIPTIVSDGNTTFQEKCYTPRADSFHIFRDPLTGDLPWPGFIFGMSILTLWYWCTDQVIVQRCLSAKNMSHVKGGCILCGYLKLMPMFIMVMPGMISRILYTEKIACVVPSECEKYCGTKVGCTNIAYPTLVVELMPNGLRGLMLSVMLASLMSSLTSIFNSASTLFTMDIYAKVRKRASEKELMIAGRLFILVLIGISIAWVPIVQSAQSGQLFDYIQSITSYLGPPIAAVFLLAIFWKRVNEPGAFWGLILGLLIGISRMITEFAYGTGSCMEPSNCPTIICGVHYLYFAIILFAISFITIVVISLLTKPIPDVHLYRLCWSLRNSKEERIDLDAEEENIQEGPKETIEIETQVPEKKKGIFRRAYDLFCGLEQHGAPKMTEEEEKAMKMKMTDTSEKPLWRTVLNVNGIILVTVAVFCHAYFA
Particulars: COS-7, 10 uM.
Description: Inhibition of human SGLT1 expressed in african green monkey COS7 cells assessed as methyl-alpha-D-[U-14C]glucopyranoside uptake at 10 uM by scintillation counting

Regarding `CCOc1ccc(Cc2cc([C@@H]3O[C@H](CO)[C@@H](O)[C@H](O)[C@H]3O)ccc2Cl)cc1`, the inhibition in test [1] worked out at 69.7%; in test [2], 72.7%.
